Measurements reported in ChEMBL document CHEMBL1201862, “PubChem BioAssay data set” (2004).
The source made the active and inactive calls.

Assays:
[1] = Luminescence Cell-Based Dose Retest to Confirm Inhibitors of Cancer Stem Cells. [Related pubchem assays (depositor defined):AID2717, AID2721]; type: functional; conditions: Homo sapiens
[2] = Luminescence Cell-Based Dose Response HTS to Identify Inhibitors of 5'UTR Stem-Loop Driven Prion Protein mRNA Translation in H4 Neuroglioblastoma Cells. [Related pubchem assays: 1827 (Project Summary), 1813 (Primary HTS)]; type: functional
[3] = inhibitors of SNCA 5'UTR-driven reporter translation, confirmation, H4 neuroglioma cells, luminescence (AID 1988); type: functional, cell-based
[4] = test system: Vero; experiment: Vero E6 cell cytotoxicity, SAR follow-up, cytotoxicity control for West Nile virus antiviral project, synthesized analogs (AID 2244); type: functional; conditions: Chlorocebus sabaeus
[5] = inhibitors of firefly luciferase expression or activity, dose response, H4 neuroglioma cells, luminescence (AID 1990); type: functional, cell-based
[6] = control 3'UTR Renilla luciferase suppression, dose response, counter-screen for Shn3 inhibitor project, cell-based, Clone20-Shn3RL, cherry-picked (AID 624133); type: functional
[7] = HepG2 cell cytotoxicity, dose response, cytotoxicity control for Shn3 inhibitor project, CellTiter-Glo, cherry-picked (AID 624134); type: functional, cell-based
[8] = test system: HeLa; experiment: Cytotoxicity counterscreen assay for transcriptional activators of heat shock protein 70 (Hsp70). [Related pubchem assays: 1203, 1252 ]; type: functional; conditions: Homo sapiens;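 further: cells exposed to compound for 16 hours before readout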
[9] = Shn3 3'UTR reporter inhibitors, dose response, cell-based, Clone20 osteoblasts, firefly luciferase, cherry-picked (AID 624132); type: functional;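 further: firefly luciferase luminescence from reporter carrying the Shn3 3'UTR in osteoblasts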
[10] = biological target: X-box-binding protein 1 (Homo sapiens, UniProt P17861); type: functional, Cricetulus griseus;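 further: confirmatory dose-response counter-screen serving a CHOP assay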
Sequence of X-box-binding protein 1 (P17861 whole entry): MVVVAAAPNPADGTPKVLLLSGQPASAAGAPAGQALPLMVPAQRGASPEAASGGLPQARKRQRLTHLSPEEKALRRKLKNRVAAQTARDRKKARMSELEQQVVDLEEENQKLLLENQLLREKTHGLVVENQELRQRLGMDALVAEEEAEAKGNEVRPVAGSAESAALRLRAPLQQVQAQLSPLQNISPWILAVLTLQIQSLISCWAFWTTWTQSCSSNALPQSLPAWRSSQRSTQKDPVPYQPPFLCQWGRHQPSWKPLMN

[11] = C. albicans growth with fluconazole, confirmation, fluorescence, retest (AID 2467); type: functional, cell-based
[12] = NIH-3T3 fibroblast cytotoxicity, dose response, cytotoxicity control, cell-based, fluorescence, Alamar Blue, secondary assay (AID 2327); type: functional;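 further: NIH-3T3 mouse fibroblasts cultured with fluconazole at 8 µg/mL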
[13] = test system: BJ; experiment: cytotoxicity toward Ras-transformed BJeLR fibroblasts, dose response, cell-based, alamar blue fluorescence, cherrypicked samples (AID 2631); type: functional; conditions: Homo sapiens;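 further: confirmatory dose-response assay in RAS-dependent BJ fibroblasts engineered with TERT, LT and ST, with cytotoxicity read by fluorescence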
[14] = biological target: Protein Rev (Human immunodeficiency virus type 1 group M subtype B (isolate HXB2)(HIV-1), UniProt P04618); experiment: inhibitors of Rev binding to RRE RNA, dose response, biochemical, fluorescence polarization, HIV-1 (AID 434976); parameters: species or system Human immunodeficiency virus 1
Sequence of Protein Rev (P04618 whole entry): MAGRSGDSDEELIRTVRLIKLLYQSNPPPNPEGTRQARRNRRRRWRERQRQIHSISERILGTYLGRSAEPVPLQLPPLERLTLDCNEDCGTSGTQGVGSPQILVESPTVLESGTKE

[15] = biological target: Female germline-specific tumor suppressor gld-1 (Caenorhabditis elegans, UniProt Q17339); experiment: inhibitors of GLD-1 binding to TGE RNA, dose response, biochemical, fluorescence polarization, C. elegans (AID 2802);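 further: fluorescence polarization of labeled TGE RNA bound by purified gld-1 protein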
Sequence of Female germline-specific tumor suppressor gld-1 (Q17339 whole entry): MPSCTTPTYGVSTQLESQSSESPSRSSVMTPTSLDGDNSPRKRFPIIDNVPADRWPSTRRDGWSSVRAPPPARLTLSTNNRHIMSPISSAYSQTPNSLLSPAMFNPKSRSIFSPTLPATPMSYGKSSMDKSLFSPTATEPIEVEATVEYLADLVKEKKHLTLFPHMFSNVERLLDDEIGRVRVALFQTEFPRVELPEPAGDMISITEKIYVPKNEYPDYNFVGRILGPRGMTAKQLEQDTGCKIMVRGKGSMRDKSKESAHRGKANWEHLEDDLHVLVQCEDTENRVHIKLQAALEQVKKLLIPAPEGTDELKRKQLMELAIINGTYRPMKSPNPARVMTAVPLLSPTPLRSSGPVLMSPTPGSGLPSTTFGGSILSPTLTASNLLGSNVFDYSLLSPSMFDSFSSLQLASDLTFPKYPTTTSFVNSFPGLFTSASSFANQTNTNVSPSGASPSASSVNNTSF

[16] = biological target: T1, Zinc finger protein mex-5 (Caenorhabditis elegans, UniProt Q9XUB2); experiment: MEX-5/TCR-2 RNA interaction inhibitors, dose response, biochemical, C. elegans, fluorescence polarization (AID 1960)
T1 sequence (Q9XUB2 whole entry): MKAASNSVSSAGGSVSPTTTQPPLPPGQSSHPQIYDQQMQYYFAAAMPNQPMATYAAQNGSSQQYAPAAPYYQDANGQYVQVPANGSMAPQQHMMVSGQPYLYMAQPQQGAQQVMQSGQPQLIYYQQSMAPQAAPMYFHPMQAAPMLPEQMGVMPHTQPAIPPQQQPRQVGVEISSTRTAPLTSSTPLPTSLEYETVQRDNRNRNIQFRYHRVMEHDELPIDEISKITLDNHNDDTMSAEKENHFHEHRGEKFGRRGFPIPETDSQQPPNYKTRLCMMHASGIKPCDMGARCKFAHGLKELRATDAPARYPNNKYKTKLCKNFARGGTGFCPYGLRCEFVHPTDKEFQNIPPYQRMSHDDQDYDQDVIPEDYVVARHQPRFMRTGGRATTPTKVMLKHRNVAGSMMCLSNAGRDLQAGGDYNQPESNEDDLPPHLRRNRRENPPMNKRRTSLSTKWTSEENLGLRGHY

[17] = biological target: T2, RNA-binding protein pos-1 (Caenorhabditis elegans, UniProt G5EF15); experiment: inhibitors of POS-1/mex-3 RNA binding, dose response, biochemical, fluorescence polarization (AID 1964);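 further: purified POS-1 fused to maltose binding protein made in E. coli; potency of compounds blocking POS-1 binding to fluorescent RNA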
T2 sequence (G5EF15 whole entry): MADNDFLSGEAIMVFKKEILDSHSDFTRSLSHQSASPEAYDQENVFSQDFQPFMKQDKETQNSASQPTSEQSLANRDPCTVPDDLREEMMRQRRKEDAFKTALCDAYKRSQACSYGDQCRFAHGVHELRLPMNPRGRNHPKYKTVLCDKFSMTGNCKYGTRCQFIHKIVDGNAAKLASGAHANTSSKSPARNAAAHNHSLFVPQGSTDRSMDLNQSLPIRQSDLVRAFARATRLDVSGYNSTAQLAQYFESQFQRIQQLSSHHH

[18] = biological target: Bcl-2-like protein 10 (Homo sapiens, UniProt Q9HD36); experiment: displacers of TR3 peptide from Bcl-B, primary screen, selectivity assay for Bfl-1 inhibitor project, biochemical, fluorescence polarization, FITC-TR3 peptide (AID 748);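 further: fluorescence polarization from a fluorescein-labelled TR3 peptide binding purified Bcl-B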
Sequence of Bcl-2-like protein 10 (Q9HD36 whole entry): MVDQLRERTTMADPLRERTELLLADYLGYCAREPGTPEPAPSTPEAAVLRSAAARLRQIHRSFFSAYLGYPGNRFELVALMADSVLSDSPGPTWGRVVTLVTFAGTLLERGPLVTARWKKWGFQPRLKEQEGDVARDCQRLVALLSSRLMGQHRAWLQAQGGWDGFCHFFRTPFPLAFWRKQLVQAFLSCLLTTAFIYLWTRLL

[19] = biological target: Cytochrome P450 2C9 (Homo sapiens, UniProt P11712); conditions: Potency
Sequence of Cytochrome P450 2C9 (P11712 whole entry): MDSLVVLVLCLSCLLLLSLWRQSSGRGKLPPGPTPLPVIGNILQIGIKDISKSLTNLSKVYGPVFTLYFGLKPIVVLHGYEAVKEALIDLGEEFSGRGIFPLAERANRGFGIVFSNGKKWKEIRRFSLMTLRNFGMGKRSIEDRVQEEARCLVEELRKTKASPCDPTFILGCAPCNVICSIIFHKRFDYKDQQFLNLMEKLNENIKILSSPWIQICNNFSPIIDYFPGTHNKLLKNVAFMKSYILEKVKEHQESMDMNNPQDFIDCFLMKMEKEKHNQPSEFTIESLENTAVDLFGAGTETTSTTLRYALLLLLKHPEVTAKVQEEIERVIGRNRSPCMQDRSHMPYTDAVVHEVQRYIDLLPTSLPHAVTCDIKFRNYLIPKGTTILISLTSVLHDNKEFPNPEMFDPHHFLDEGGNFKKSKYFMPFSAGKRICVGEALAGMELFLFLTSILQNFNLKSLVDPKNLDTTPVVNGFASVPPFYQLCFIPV

[20] = biological target: Signal transducer and activator of transcription 3 (Homo sapiens, UniProt P40763); experiment: STAT3 activators, late-stage profile, late-stage follow-up, cell-based, STAT1 reporter, BCL3 qPCR, cytotoxicity, panel member STAT3 Activation (AID 2049)
Sequence of Signal transducer and activator of transcription 3 (P40763 whole entry): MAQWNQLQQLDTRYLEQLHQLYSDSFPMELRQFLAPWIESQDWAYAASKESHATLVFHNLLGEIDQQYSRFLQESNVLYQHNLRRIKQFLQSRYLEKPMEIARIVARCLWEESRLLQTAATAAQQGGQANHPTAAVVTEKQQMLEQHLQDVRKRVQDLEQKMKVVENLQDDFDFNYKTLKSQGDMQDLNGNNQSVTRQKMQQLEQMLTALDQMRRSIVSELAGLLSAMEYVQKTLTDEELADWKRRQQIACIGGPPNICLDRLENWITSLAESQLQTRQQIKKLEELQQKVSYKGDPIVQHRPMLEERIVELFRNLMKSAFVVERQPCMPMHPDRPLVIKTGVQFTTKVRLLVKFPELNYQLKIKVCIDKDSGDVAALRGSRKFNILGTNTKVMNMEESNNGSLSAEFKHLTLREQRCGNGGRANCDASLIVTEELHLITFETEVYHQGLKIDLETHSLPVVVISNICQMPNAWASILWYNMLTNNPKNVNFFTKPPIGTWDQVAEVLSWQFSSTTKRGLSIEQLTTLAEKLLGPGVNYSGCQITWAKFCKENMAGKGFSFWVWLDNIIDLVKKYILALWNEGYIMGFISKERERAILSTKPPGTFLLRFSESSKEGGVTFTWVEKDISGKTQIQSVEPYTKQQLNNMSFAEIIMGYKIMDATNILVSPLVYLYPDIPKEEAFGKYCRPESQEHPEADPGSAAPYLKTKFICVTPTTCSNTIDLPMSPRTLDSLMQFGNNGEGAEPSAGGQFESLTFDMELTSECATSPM

[21] = STAT3 activators, late-stage profile, late-stage follow-up, cell-based, STAT1 reporter, BCL3 qPCR, cytotoxicity, panel member Cytotoxicity (AID 2049); type: toxicity
[22] = inhibition of K1F phage lysis, E. coli UTI89, bacterial capsule biogenesis inhibitors, alamar blue (AID 488966); type: functional
[23] = biological target: Scavenger receptor class B member 1 (Mus musculus, UniProt Q61009); experiment: inhibitors of SR-BI mediated HDL lipid uptake, dose response, ldlA[mSR-BI] cells, fluorescence, cherry pick (AID 493194); type: functional, cell-based;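 further: cellular uptake of fluorescent DiI-labeled HDL measured as cell fluorescence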
Sequence of Scavenger receptor class B member 1 (Q61009 whole entry): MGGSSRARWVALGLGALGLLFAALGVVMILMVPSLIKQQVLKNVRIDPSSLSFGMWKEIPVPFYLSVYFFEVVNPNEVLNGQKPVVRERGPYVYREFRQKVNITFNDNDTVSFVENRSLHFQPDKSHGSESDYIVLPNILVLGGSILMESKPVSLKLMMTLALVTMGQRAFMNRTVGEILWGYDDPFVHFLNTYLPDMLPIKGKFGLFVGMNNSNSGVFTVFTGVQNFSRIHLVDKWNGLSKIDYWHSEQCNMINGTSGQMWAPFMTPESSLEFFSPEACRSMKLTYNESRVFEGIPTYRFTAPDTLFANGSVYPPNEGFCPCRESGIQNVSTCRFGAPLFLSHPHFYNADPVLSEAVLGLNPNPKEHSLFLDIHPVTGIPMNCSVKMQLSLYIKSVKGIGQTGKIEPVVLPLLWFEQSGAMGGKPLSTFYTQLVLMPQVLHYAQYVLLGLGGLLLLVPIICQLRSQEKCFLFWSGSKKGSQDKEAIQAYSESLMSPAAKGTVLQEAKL

In the case of `CCN(CC)CCCN=C(S)N1CCN(c2nc(-c3ccc(F)cc3)cs2)CC1`, the AC50 [1] is reported as 1 µM (active), the EC50 [2] is reported as > 120 µM (not active) and the EC50 [3] is reported as > 120 µM (not active). For the same compound, the CC50 [4] was 13.3 µM (active) and the EC50 [5] was > 120 µM (not active).

With `Cc1cc(Cl)n2c(nc3ccccc32)c1C#N` the AC50 [6] was 5.72 µM (active), the AC50 [7] was > 70 µM (inactive) and the CC50 [8] was > 11 µM (not active). The AC50 [9] was 1.85 µM (active), the “Absolute IC50 (XBP1)” value [10] was 10 µM and the EC50 [11] was 0.54 µM (active). The EC50 [12] was 6.06 µM (inconclusive) and the EC50 [13] was 0.343 µM (inconclusive).

In the case of `COC(=O)[C@@]1(C#N)[C@@H]2C=CC(C(C)=O)=CN2[C@@H](C(N)=O)[C@@H]1c1ccc(F)cc1`, the IC50 [14] is reported as 18.3 µM (not active), the IC50 [15] is reported as 15.1 µM (inactive) and the EC50 [16] is reported as 11.4 µM (active). The EC50 [17] was 4.6 µM (active).

With `COc1cc(CC(=O)OCC(=O)Nc2ncc(Cl)cc2Cl)cc(OC)c1OC` the IC50 [18] was 68.3 µM (inactive).

In the case of `COCC#Cc1ccc(C2C(C)CCC3C(=O)N4C(CCC(C)C4c4ccc(C#CCOC)cc4)C(=O)N32)cc1` (stereo not drawn), the AC50 [19] is reported as 7.94 µM (inconclusive).

For `COc1cc(NC(=O)c2cc(C3CC3)on2)c(OC)cc1Cl`, the EC50 [20] was 0.00219 µM (active) and the CC50 [21] was > 55.7 µM (inactive).

With `Cc1nc(SCc2ccccc2)c([N+](=O)[O-])[nH]1` the IC50 [22] was > 150 µM (active).

In the case of `COc1ccc(OC)c(Nc2ccc(Nc3cc(OC)ccc3OC)nn2)c1`, the AC50 [23] is reported as 19.8 µM (active).
